Measured values reported in paper PMC4144712 (Biochemistry, 2014).

Legend:
CXCR4 = CXCR4 (Homo sapiens, UniProt P61073); experiment: CXCR4-FITC-DV1 competitive binding assay; details: CHO-CXCR4 cells; 800 nM FITC-DV1
CCR5 = experiment: Inhibition of FITC-DV1 binding in CCR5-expressing cell line; details: data not shown
CCR3 = experiment: Inhibition of FITC-DV1 binding in CCR3-expressing cell line; details: data not shown

CXCR4, sequence (P61073 whole entry): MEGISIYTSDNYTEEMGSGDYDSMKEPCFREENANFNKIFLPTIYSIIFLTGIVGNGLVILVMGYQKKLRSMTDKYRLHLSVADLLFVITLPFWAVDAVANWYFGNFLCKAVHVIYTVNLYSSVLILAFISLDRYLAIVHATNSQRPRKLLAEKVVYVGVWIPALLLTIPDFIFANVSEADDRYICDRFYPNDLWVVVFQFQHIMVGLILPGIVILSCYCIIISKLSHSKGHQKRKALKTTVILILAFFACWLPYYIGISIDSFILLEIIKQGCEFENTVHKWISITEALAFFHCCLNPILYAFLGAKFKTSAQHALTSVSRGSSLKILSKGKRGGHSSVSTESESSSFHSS

c1cc(CN2CCCNCCNCCCNCC2)ccc1CN1CCCNCCNCCCNCC1 [AMD3100]
inhibition of the binding of FITC-DV1 to CXCR4 (in words) (CXCR4): inhibited the binding of FITC-DV1 to CXCR4

RANTES: a common ligand of CCR5 and CCR3
inhibition of the binding of FITC-DV1 in CCR5-expressing cell line (CCR5): Neither ubiquitin, a ligand of CXCR4, nor RANTES (a common ligand of CCR5 and CCR3) inhibited the binding of FITC-DV1 | inhibition of the binding of FITC-DV1 in CCR3-expressing cell line (CCR3): Neither ubiquitin, a ligand of CXCR4, nor RANTES (a common ligand of CCR5 and CCR3) inhibited the binding of FITC-DV1
